Measured values published in patent publication US5149707A, “1-((2-fluorophenyl)(4-fluorophenyl)phenylmethyl)-1H-imidazole useful as antifungal agent” (J. Uriach & Cia, S.A., priority 1988, dated 1992).
Converted amounts (≈) assume the structure as drawn.

Tests used:
Format in all cases: cell-based
Aspergillus flavus = assay: In vitro antifungal activity (MIC), agar dilution
Procedure: (§1) The antifungal activity of 1-[(2-fluorophenyl)(4-fluorophenyl)phenylmethyl]-1H-imidazole was shown by its ability to inhibit the growth of different species of yeast and filamentous fungi in vitro. The activity was recorded as the MIC value, that is, the minimum amount of product needed to achieve the complete inhibition of the in vitro growth of the test organism. Testing was performed as follows: a solution of the antifungal agent in ethanol was diluted with DST agar (pH 6.5) or Emmon's Sabouraud dextrose agar to obtain concentrations between 10 and 0.01 mcg/ml, or 80 and 0.16 mcg/m, respectively. The inoculum was standarized in order 1×10^5 cfu/ml, and 10 mcl of each organism was seeded into the agar surface. Incubation was then allowed at 30° C. during 3 days (DST) or 2 days (Emmon's) for yeasts and 10 days for filamentous fungi. Following incubation, the zones of inhibition were measured and compared to an inoculated, drug-free control to yield the MIC value.

[1] = test system: Aspergillus fumigatus (1); assay: In vitro antifungal activity (MIC), agar dilution
Procedure: as §1

[2] = test system: Aspergillus fumigatus (2); assay: In vitro antifungal activity (MIC), agar dilution
Procedure: as §1

Aspergillus niger = assay: In vitro antifungal activity (MIC), agar dilution
Procedure: as §1

C. albicans ATCC 10231 = assay: In vitro antifungal activity (MIC), agar dilution; conditions: Candida albicans
Procedure: as §1

C. albicans ATCC 28516 = assay: In vitro antifungal activity (MIC), agar dilution; conditions: Candida albicans
Procedure: as §1

C. albicans serotipo A = assay: In vitro antifungal activity (MIC), agar dilution
Procedure: as §1

C. albicans serotipo B = assay: In vitro antifungal activity (MIC), agar dilution; conditions: Candida albicans
Procedure: as §1

[3] = test system: C. guilliermondii (clinica); assay: In vitro antifungal activity (MIC), agar dilution; conditions: Meyerozyma guilliermondii
Procedure: as §1

[4] = test system: C. guilliermondii SQ 2210; assay: In vitro antifungal activity (MIC), agar dilution; conditions: Meyerozyma guilliermondii
Procedure: as §1

[5] = test system: C. parapsilosis (clinica); assay: In vitro antifungal activity (MIC), agar dilution; conditions: Lodderomyces parapsilosis
Procedure: as §1

[6] = test system: C. pseudotropicalis ATCC 28838; assay: In vitro antifungal activity (MIC), agar dilution; conditions: Kluyveromyces marxianus
Procedure: as §1

C. tropicalis SQ 1647 = assay: In vitro antifungal activity (MIC), agar dilution
Procedure: as §1

[7] = test system: Microsporum audouini ATCC 9079; assay: In vitro antifungal activity (MIC), agar dilution
Procedure: as §1

[8] = test system: Microsporum canis (clinica); assay: In vitro antifungal activity (MIC), agar dilution
Procedure: as §1

Microsporum gypseum (-) = assay: In vitro antifungal activity (MIC), agar dilution; conditions: Nannizzia gypsea
Procedure: as §1

Microsporum gypseum = assay: In vitro antifungal activity (MIC), agar dilution; conditions: Nannizzia gypsea
Procedure: as §1

Rhodotorula rubra = assay: In vitro antifungal activity (MIC), agar dilution
Procedure: as §1

S. cerevisiae ATCC 9763 = assay: In vitro antifungal activity (MIC), agar dilution; conditions: Saccharomyces cerevisiae
Procedure: as §1

T. glabrata (clinica) = assay: In vitro antifungal activity (MIC), agar dilution; conditions: Nakaseomyces glabratus
Procedure: as §1

[9] = test system: T. mentagrophytes (clinica) (1); assay: In vitro antifungal activity (MIC), agar dilution; conditions: Trichophyton mentagrophytes
Procedure: as §1

[10] = test system: T. mentagrophytes (clinica) (2); assay: In vitro antifungal activity (MIC), agar dilution; conditions: Trichophyton mentagrophytes
Procedure: as §1

[11] = test system: T. mentagrophytes (clinica) (3); assay: In vitro antifungal activity (MIC), agar dilution; conditions: Trichophyton mentagrophytes
Procedure: as §1

[12] = test system: T. mentagrophytes (clinica) (4); assay: In vitro antifungal activity (MIC), agar dilution; conditions: Trichophyton mentagrophytes
Procedure: as §1

[13] = test system: T. mentagrophytes (clinica) (5); assay: In vitro antifungal activity (MIC), agar dilution; conditions: Trichophyton mentagrophytes
Procedure: as §1

[14] = test system: T. mentagrophytes ATCC 9129; assay: In vitro antifungal activity (MIC), agar dilution
Procedure: as §1

[15] = test system: T. mentagrophytes ATCC 9972; assay: In vitro antifungal activity (MIC), agar dilution; conditions: Trichophyton mentagrophytes
Procedure: as §1

T. rubrum = assay: MIC distribution, serial dilutions in Sabouraud gentamycin broth, microplates; conditions: # of strains = 6
Procedure: The antifungal activity of 1-[(2-fluorophenyl)(4-fluorophenyl)phenylmethyl]-1H-imidazole and bifonazole was determined by serial dilutions in Sabouraud gentamycin broth using microplates. The antifungal agent was diluted in 50% ethanol to obtain concentrations between 40 and 0.015 mcg/ml. Inoculum was 10^7 cfu/ml for yeast and 10^6 cfu/ml for dermatophytes. Incubation was allowed at 37° C. during 2 days for yeasts, and at 29° C. during 7 days for dermatophytes. MIC's were determined as in example 18. The MIC distributions obtained in 9 organisms are shown in the next tables.

[16] = Emmon's Sabouraud dextrose agar

c1ccc(-c2ccc(C(c3ccccc3)n3ccnc3)cc2)cc1 (centres unmarked) [Bifonazole, 1-[(4-biphenyl)-phenylmethyl]-1H-imidazole, reference compound]
MIC (Aspergillus flavus; DST agar): 10 µg/mL (≈ 32.2 µM) | MIC (Aspergillus flavus; [16]): 80 µg/mL (≈ 258 µM) | MIC ([1]; DST agar): 0.1 µg/mL (≈ 0.322 µM) | MIC [1, 16]: 0.31 µg/mL (≈ 0.999 µM) | MIC ([2]; DST agar): 1 µg/mL (≈ 3.22 µM) | MIC [2, 16]: 1.25 µg/mL (≈ 4.03 µM) | MIC (Aspergillus niger; DST agar): 0.1 µg/mL (≈ 0.322 µM) | MIC (Aspergillus niger; [16]): 2.5 µg/mL (≈ 8.05 µM) | MIC (C. albicans ATCC 10231; ATCC10231, DST agar): 1 µg/mL (≈ 3.22 µM) | MIC (C. albicans ATCC 10231; ATCC10231, Emmon's Sabouraud dextrose agar): 0.63 µg/mL (≈ 2.03 µM) | MIC (C. albicans ATCC 28516; ATCC28516, DST agar): 2.5 µg/mL (≈ 8.05 µM) | MIC (C. albicans ATCC 28516; ATCC28516, Emmon's Sabouraud dextrose agar): 0.63 µg/mL (≈ 2.03 µM) | MIC (C. albicans serotipo A; Candida albicans): 2.5 µg/mL (≈ 8.05 µM) | MIC (C. albicans serotipo A; [16]): 2.50 µg/mL (≈ 8.05 µM) | MIC (C. albicans serotipo B; DST agar): 10 µg/mL (≈ 32.2 µM) | MIC (C. albicans serotipo B; [16]): 20 µg/mL (≈ 64.4 µM) | MIC [3, 16]: 40 µg/mL (≈ 129 µM) | MIC ([3]; DST agar): 10 µg/mL (≈ 32.2 µM) | MIC ([4]; SQ2210, DST agar): 10 µg/mL (≈ 32.2 µM) | MIC ([4]; SQ2210, Emmon's Sabouraud dextrose agar): 5 µg/mL (≈ 16.1 µM) | MIC ([5]; DST agar): 10 µg/mL (≈ 32.2 µM) | MIC [5, 16]: 20 µg/mL (≈ 64.4 µM) | MIC ([6]; ATCC28838, DST agar): 0.05 µg/mL (≈ 0.161 µM) | MIC ([6]; ATCC28838, Emmon's Sabouraud dextrose agar): 1.25 µg/mL (≈ 4.03 µM) | MIC (C. tropicalis SQ 1647; Candida tropicalis, SQ1647): 10 µg/mL (≈ 32.2 µM) | MIC (C. tropicalis SQ 1647; [16]): 10.00 µg/mL (≈ 32.2 µM) | MIC ([7]; ATCC9079, DST agar): 0.05 µg/mL (≈ 0.161 µM) | MIC ([7]; ATCC9079, Emmon's Sabouraud dextrose agar): 5 µg/mL (≈ 16.1 µM) | MIC ([8]; DST agar): 0.025 µg/mL (≈ 0.0805 µM) | MIC [8, 16]: 2.5 µg/mL (≈ 8.05 µM) | MIC (Microsporum gypseum (-); DST agar): 2.5 µg/mL (≈ 8.05 µM) | MIC (Microsporum gypseum (-); [16]): 5 µg/mL (≈ 16.1 µM) | MIC (Microsporum gypseum; DST agar): 0.1 µg/mL (≈ 0.322 µM) | MIC (Microsporum gypseum; [16]): 0.63 µg/mL (≈ 2.03 µM) | MIC (Rhodotorula rubra; DST agar): 0.05 µg/mL (≈ 0.161 µM) | MIC (Rhodotorula rubra; [16]): 0.04 µg/mL (≈ 0.129 µM) | MIC (S. cerevisiae ATCC 9763; ATCC9763, DST agar): 0.25 µg/mL (≈ 0.805 µM) | MIC (S. cerevisiae ATCC 9763; ATCC9763, Emmon's Sabouraud dextrose agar): 0.63 µg/mL (≈ 2.03 µM) | MIC (T. glabrata (clinica); DST agar): 0.05 µg/mL (≈ 0.161 µM) | MIC (T. glabrata (clinica); [16]): 0.16 µg/mL (≈ 0.515 µM) | MIC ([9]; DST agar): 0.5 µg/mL (≈ 1.61 µM) | MIC [9, 16]: 5 µg/mL (≈ 16.1 µM) | MIC ([10]; DST agar): 10 µg/mL (≈ 32.2 µM) | MIC [10, 16]: 80 µg/mL (≈ 258 µM) | MIC ([11]; DST agar): 1 µg/mL (≈ 3.22 µM) | MIC [11, 16]: 5 µg/mL (≈ 16.1 µM) | MIC ([12]; DST agar): 0.5 µg/mL (≈ 1.61 µM) | MIC [12, 16]: 5 µg/mL (≈ 16.1 µM) | MIC ([13]; DST agar): 1 µg/mL (≈ 3.22 µM) | MIC [13, 16]: 5 µg/mL (≈ 16.1 µM) | MIC [14, 16]: 2.50 µg/mL (≈ 8.05 µM) | MIC ([14]; Trichophyton mentagrophytes, ATCC9129): 2.5 µg/mL (≈ 8.05 µM) | MIC ([15]; ATCC9972, DST agar): 1 µg/mL (≈ 3.22 µM) | MIC ([15]; ATCC9972, Emmon's Sabouraud dextrose agar): 5 µg/mL (≈ 16.1 µM) | MIC Distribution (number of strains) (T. rubrum; MIC 0.038): 2 # of strains | MIC Distribution (number of strains) (T. rubrum; MIC 0.3): 1 # of strains | MIC Distribution (number of strains) (T. rubrum; MIC 0.6): 1 # of strains | MIC Distribution (number of strains) (T. rubrum; MIC 5.0): 1 # of strains | MIC Distribution (number of strains) (T. rubrum; MIC column 1.2): 1 # of strains
